The record followed here is ChEMBL document CHEMBL1201862, “PubChem BioAssay data set” (2004).

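Test compounds were applied to cells in 96-well plates for 48 hours at 5 doses. GI50 = concentration required for 50% inhibition of growth.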 Active and inactive are the calls of the source. No stated cut-off is given here; in the data, active = GI50 up to about 1.1 µM and inactive = higher.

Common to all, as to assay: NCI anticancer screen, dose series, 48 h
For assay [1], the system named is SK-MEL-28.
The subject of assay [2] is DMS-114.
The test system of assay [3] is Malme-3M.
The subject of assay [4] is HOP-62.
For assay [5], the system named is UO-31.
Assay [6] concerns M14.
The subject of assay [7] is SW-620.
Assay [8] has as its system EKVX.
For assay [9], the system named is SK-MEL-5.
The test system of assay [10] is U-251.
Assay [11] relates to SNB-19.
Assay [12] concerns UACC-62.
Assay [13] concerns ACHN.
The subject of assay [14] is LOX IMVI.
Assay [15] has as its system HCC 2998.
Assay [16] has as its system BT-549.
Assay [17] deals with HOP-92.
The subject of assay [18] is SK-MEL-2.
In assay [19] the test system is OVCAR-4.
For assay [20], the system named is MCF7.

Consider `NC(=O)C1C(=O)Oc2cccnc21` (centres undefined), for which the GI50 in assay [1] was > 100 µM (inactive); in assay [2], > 100 µM (inactive); in [3] it was > 100 µM (inactive); in assay [4] it was > 100 µM (inactive); in [5] it was 99.8 µM (inactive); in assay [6], > 100 µM (inactive). Also, the GI50 in assay [7] is 83 µM (inactive); in [8], > 100 µM (inactive); in [9], > 100 µM (inactive); in assay [10], > 100 µM (inactive); in assay [11], > 100 µM (inactive); in [12] it was > 100 µM (inactive). In addition, the GI50 in [13] and in [14] was > 100 µM (inactive) throughout.

Turning to `O=C1Cc2c(-c3ccccc3)cc(-c3ccc(Cl)cc3)nc2-c2ccccc2N1`, the GI50 is 6.07 µM (inactive) in assay [15]; 2.94 µM (inactive) in [1]; 17.1 µM (inactive) in [16]; 5.02 µM (inactive) in assay [3]; 3.66 µM (inactive) in [4]; 2.05 µM (inactive) in [5]. The GI50 in assay [6] was 9.95 µM (inactive); in [17], 2.3 µM (inactive); in assay [7] it was 6.7 µM (inactive); in assay [18], 17.1 µM (inactive); in [19], 1.7 µM (inactive); in [8] it was 6.92 µM (inactive). Besides, the GI50 was 3.65 µM (inactive) in assay [9]; 1.72 µM (inactive) in assay [10]; 1.94 µM (inactive) in assay [11]; 5.57 µM (inactive) in assay [12]; 2.4 µM (inactive) in [13]; 8.89 µM (inactive) in assay [20]. In addition, the GI50 in [14] is 6.22 µM (inactive).

As to `CC(C)C(=O)OCC1CCCN2CCCCC12` (centres undefined), the GI50 in [15] is 28.8 µM (inactive); in assay [1], 97.9 µM (inactive); in assay [16], 21.5 µM (inactive); in assay [3], > 100 µM (inactive); in assay [4], > 100 µM (inactive); in [5], 62.7 µM (inactive). The GI50 in assay [6], in [17], in [7], in assay [18], in assay [19] and in assay [8] was > 100 µM (inactive) throughout. The GI50 in [9] was > 100 µM (inactive); in assay [10], > 100 µM (inactive); in assay [11], > 100 µM (inactive); in assay [12] it was 68.1 µM (inactive); in [13], > 100 µM (inactive); in [20], 48.1 µM (inactive). Further, in assay [14], the GI50 is 82 µM (inactive).

As for `Cc1cc(C)nc(NS(=O)(=O)c2ccc(NNc3c4ccccc4nc4c(C(=O)Nc5ccc(S(N)(=O)=O)cc5)cccc34)cc2)n1`, the GI50 in [15] was 20.1 µM (inactive); in [1] it was 25.1 µM (inactive); in assay [16], 34.8 µM (inactive); in assay [3] it was 43.3 µM (inactive); in assay [4] it was 33.4 µM (inactive); in assay [5], 45.7 µM (inactive). The GI50 in assay [6] is > 100 µM (inactive); in [17] it was 17.4 µM (inactive); in assay [7], 45.3 µM (inactive); in [18], 12.8 µM (inactive); in [19] it was 49.5 µM (inactive); in assay [8], 45.2 µM (inactive). The GI50 in assay [9] was 30.5 µM (inactive); in assay [10], 14.1 µM (inactive); in assay [11], 27.8 µM (inactive); in [12], 27.7 µM (inactive); in assay [13] it was 28.1 µM (inactive); in [20], 53.5 µM (inactive). Besides, the GI50 in assay [14] is 19.2 µM (inactive).

As to `CCCC(=O)NC(Nc1ccc(F)cc1)(C(F)(F)F)C(F)(F)F`, the GI50 is 98.6 µM (inactive) in assay [15]; > 75.2 µM (inactive) in assay [1]; 80 µM (inactive) in [16]; > 100 µM (inactive) in assay [3]; > 100 µM (inactive) in [4]; 9.48 µM (inactive) in assay [5]. Also, the GI50 in assay [6] is 0.387 µM (active); in assay [17], > 100 µM (inactive); in [7] it was 2.84 µM (inactive); in assay [18] it was 2.25 µM (inactive); in [19] it was 12.6 µM (inactive); in [8] it was > 100 µM (inactive). The GI50 is 1.03 µM (active) in [9]; > 100 µM (inactive) in [10]; > 100 µM (inactive) in assay [11]; 1.09 µM (active) in [12]; 2.14 µM (inactive) in [13]; > 37.7 µM (inactive) in [20]. Further, in [14], the GI50 was 0.404 µM (active).

Regarding `C=C(C)C(=O)OC1C[C@H](COC(C)=O)C2CC=C(C)C2C2OC(=O)C(=C)[C@H]12` (some centres undefined), the GI50 in [15] was 12.2 µM (inactive); in assay [1], 2.41 µM (inactive); in assay [16], 4.13 µM (inactive); in [3], 1.55 µM (inactive); in assay [4] it was 13.3 µM (inactive); in [5] it was 2.2 µM (inactive). The GI50 in assay [6] is 2.07 µM (inactive); in assay [17], 1.92 µM (inactive); in assay [7], 2.23 µM (inactive); in assay [18], 2.82 µM (inactive); in assay [19] it was 1.74 µM (inactive); in [8], 9.82 µM (inactive). Moreover, the GI50 was 7.5 µM (inactive) in [9]; 8.67 µM (inactive) in [10]; 16.9 µM (inactive) in assay [11]; 4.54 µM (inactive) in assay [12]; 3.69 µM (inactive) in assay [13]; 4.11 µM (inactive) in assay [20]. Moreover, the GI50 in assay [14] is 1.85 µM (inactive).

With `C/C=C(/C)C(=O)O[C@@H]1CCN2CC[C@H](COC(=O)/C(=C/C)CO)C12` (some centres undefined), the GI50 is 20.7 µM (inactive) in assay [15]; > 75 µM (inactive) in [1]; > 100 µM (inactive) in [16]; 32 µM (inactive) in [3]; > 100 µM (inactive) in assay [4]; > 87.7 µM (inactive) in assay [5]. Moreover, the GI50 in assay [6] was 19.6 µM (inactive); in assay [17], 58.2 µM (inactive); in assay [7], > 100 µM (inactive); in assay [18], 41.4 µM (inactive); in assay [19] it was > 100 µM (inactive); in assay [8] it was > 100 µM (inactive). Besides, the GI50 in [9] was 26.9 µM (inactive); in assay [10], > 100 µM (inactive); in assay [11] it was > 100 µM (inactive); in assay [12] it was > 100 µM (inactive); in [13], > 100 µM (inactive); in assay [20], > 100 µM (inactive). In [14], the GI50 is 61.8 µM (inactive).

Take `O=C1Sc2ccc(Br)cc2C(=O)Sc2ccccc21`: the GI50 is 14.5 µM (inactive) in [15]; 19.5 µM (inactive) in [1]; 12.5 µM (inactive) in [16]; 2.24 µM (inactive) in assay [3]; 12.6 µM (inactive) in assay [4]; 12.9 µM (inactive) in assay [5]. Moreover, the GI50 is 11.4 µM (inactive) in assay [6]; 13.5 µM (inactive) in [17]; 17.9 µM (inactive) in [7]; 18.8 µM (inactive) in assay [18]; 13.2 µM (inactive) in [19]; 8.02 µM (inactive) in [8]. The GI50 in [9] is 14.4 µM (inactive); in assay [10], 14.5 µM (inactive); in [11], 13.9 µM (inactive); in assay [12] it was 16.8 µM (inactive); in assay [13] it was 16.4 µM (inactive); in [20], 16.4 µM (inactive). In addition, in [14], the GI50 was 9.1 µM (inactive).

Regarding `COC(=O)[C@@H]1C=C[C@H](OC2OC(COC(C)=O)C(OC(C)=O)C(OC(C)=O)C2OC(C)=O)n2c(=O)c3ccccc3c(=O)n21` (some centres undefined), the GI50 in [15] was 16.1 µM (inactive); in [1], 13.2 µM (inactive); in [16], 4.8 µM (inactive); in [3], 16.9 µM (inactive); in [4], 17.9 µM (inactive); in [5], 14.4 µM (inactive). The GI50 is 15.3 µM (inactive) in assay [6]; 10.1 µM (inactive) in [17]; 12.4 µM (inactive) in [7]; 9.16 µM (inactive) in assay [18]; 16.6 µM (inactive) in [19]; 16.5 µM (inactive) in assay [8]. For the same compound, the GI50 was 14.7 µM (inactive) in assay [9]; 12 µM (inactive) in assay [10]; 19.4 µM (inactive) in assay [11]; 9.93 µM (inactive) in assay [12]; 11.7 µM (inactive) in assay [13]; 8.61 µM (inactive) in assay [20]. Also, the GI50 in [14] was 10.9 µM (inactive).

Regarding `COc1ccc(CNc2nc(NCc3ccc(OC)cc3)nc(NC3CCCCC3)n2)cc1`, the GI50 in [15] is 1.11 µM (active); in [1] it was > 100 µM (inactive); in assay [16], 4.08 µM (inactive); in assay [3], 0.225 µM (active); in assay [4], 5.5 µM (inactive); in assay [5] it was 4.32 µM (inactive). Moreover, the GI50 is 2.15 µM (inactive) in assay [6]; 24 µM (inactive) in assay [17]; 3.56 µM (inactive) in assay [7]; 2.81 µM (inactive) in [18]; 10 µM (inactive) in assay [19]; 2.57 µM (inactive) in [8]. Besides, the GI50 in assay [9] is 3.56 µM (inactive); in [10], 3.03 µM (inactive); in assay [11], 2.07 µM (inactive); in assay [12], 2 µM (inactive); in [13] it was 5.11 µM (inactive); in assay [20], 0.112 µM (active). Moreover, the GI50 in [14] is 3.13 µM (inactive).

For `CC(=O)Nc1nnc(S(=O)(=O)NC(=S)Nc2ccc(Cl)cc2)s1`, the GI50 in assay [15], in assay [1], in assay [16], in assay [3], in assay [4] and in [5] was > 100 µM (inactive) each time. For the same compound, the GI50 in assay [6], in [17], in assay [7], in assay [18], in [19] and in assay [8] was > 100 µM (inactive) throughout. Moreover, the GI50 in [9], in assay [10], in [11], in [12], in [13] and in [20] was > 100 µM (inactive) each time. Also, the GI50 in [14] is > 100 µM (inactive).
